Values joined by “and” are separate entries in the source; they are usually repeats but may differ in a detail not shown here. Equal entries are not always repeated.
Experiments:
[1] = system: AUD patients; test: Drinking-related problems, Short Index of Problems (SIP-2R); type: in vivo, human; conditions: week 36
Description: (§1) The pre-specified primary drinking outcome was the percentage of heavy drinking days (PH DD) during […], assessed at weeks 8, 12, 24, and 36 using the timeline followback, a reliable and valid calendar-based method which is the gold standard outcome for AUD clinical trials.^43-47 Secondary outcomes included percent drinking days (PDD), average drinks per day (DPD), and dichotomous outcomes: abstinence, lack of heavy drinking days, and reduction in World Health Organization risk level^48 by one, two, or three levels. Hair or fingernail samples were collected at week 24 and assayed for ethylglucuronide (EtG) concentration to confirm self-reported abstinence. The Short Index of Problems (SIP-2R)^49 was used to assess drinking-related problems at baseline and weeks 12, 24, and 36.
Treatment contrasts for dichotomous outcomes were obtained using Chi-squared statistics. Effects of treatment on problems related to drinking were compared using univariate mixed models for repeated measures (MMRM) and generalized linear models. Hedges'g was computed as a measure of effect size for between- and within-group differences on continuous outcomes, and odds ratios were computed for dichotomous outcomes. No correction was made for multiple comparisons, so analyses of secondary outcomes should be considered exploratory.

[2] = system: alcohol-dependent participants; conditions: psilocybin 21-28 mg/70 kg, open-label; cited from earlier work
[3] = system: AUD patients; test: Double-blind randomized trial of psilocybin-assisted treatment of AUD: drinking outcomes by timeline followback; type: in vivo, human; conditions: for % of Heavy drinking days (PHDD), mean: 32-week double-blind follow-up (weeks 5-36) after first dose, oral psilocybin 25 mg/70 kg then 25-40 mg/70 kg or diphenhydramine 50 mg then 50-100 mg at weeks 4 and 8, with psychotherapy; for Abstinence, NNT / Abstinence, OR / No heavy drinking, NNT / No heavy drinking, OR / WHO risk level Decrease 1, NNT / WHO risk level Decrease 1, OR / WHO risk level Decrease 2, NNT / WHO risk level Decrease 2, OR / WHO risk level Decrease 3, NNT / WHO risk level Decrease 3, OR: psilocybin vs diphenhydramine
Protocol: Design: In this double-blind trial, participants were offered 12 weeks of manualized psychotherapy and were randomly assigned to receive psilocybin vs. diphenhydramine during two day-long medication sessions at week 4 and 8. Outcomes were assessed over the 32-week double-blind period following the first dose of study medication.
Interventions: Study medications were psilocybin 25 mg/70 kg vs. diphenhydramine 50 mg (first session) and psilocybin 25-40 mg/70 kg vs. diphenhydramine 50-100 mg (second session). Psychotherapy included motivational enhancement therapy and cognitive-behavioral therapy.
Qualifying participants were assessed at screening, baseline (week 0), and weeks 4, 5, 8, 9, 12, 24, and 36. They were randomly assigned in a 1:1 ratio to receive either psilocybin or diphenhydramine, administered in two eight-hour sessions at weeks 4 and 8. All participants who completed the double-blind observation period (weeks 5-36) and still met safety criteria were offered an open-label psilocybin session at week 38, including four additional psychotherapy sessions and assessment for an additional 18 weeks. Participants received up to a total of $560 for completing assessments in the course of the trial, but were not reimbursed for attending the therapy and medication sessions.
All participants were offered a total of 12 psychotherapy sessions from a team of two therapists including a licensed psychiatrist: 4 before the first medication session, 4 between the first and second medication sessions, and 4 in the month following the second medication session. The psychotherapy, described in detail in a separate publication,^41 included motivational interviewing and cognitive behavioral therapy for AUD as well as material designed to help the participants to manage and make use of the psychoactive effects of the study medication.
Study medication was taken orally in a single opaque capsule of unvarying appearance and weight. Psilocybin doses were weight-based to control for participant body weight, which ranged from 49.0 to 116.1 (mean=78.3, SD=15.6) kg. Doses for the first session were psilocybin 25 mg/70 kg or diphenhydramine 50 mg. Participants received an increased dose in the second session if there were no dose-limiting adverse events and they agreed to the increase. The increased dose of psilocybin was 30 mg/70 kg if the participant's total score on the Pahnke-Richards Mystical Experience Questionnaire (MEQ)^42 was ≥0.6 in the first session (indicating a robust subjective response to the 25 mg/70 kg dose), or 40 mg/70 kg if the MEQ total score in the first session was <0.6. The increased dose of diphenhydramine was 100 mg, regardless of subjective response.
Study medication was administered at approximately 9 AM, after which participants were required to stay in the session room with the therapists for at least 8 hours (except for bathroom breaks). During the session, participants were encouraged to lie on a couch wearing eyeshades and headphones providing a standardized playlist of music. Medications were available in the session room to treat hypertension, severe anxiety, or psychotic symptoms.
as §1, with “36. […]” for “36.”

[4] = system: AUD patients; test: Subjective effects of study medication, Mystical Experience Questionnaire (MEQ); type: in vivo, human
Protocol: Subjective effects of psilocybin vs. diphenhydramine were assessed using the States of Consciousness Questionnaire,^42 containing the 43-item Mystical Experience Questionnaire (MEQ), completed immediately after each medication session.
MEQ scores for the first and second medication sessions were computed and contrasted by group (psilocybin vs. diphenhydramine) using t-tests for independent samples.

[5] = system: AUD patients; test: Safety: blood pressure, heart rate and adverse events in the trial; type: in vivo, human
Protocol: Blood pressure and heart rate were assessed at 30- to 60-minute intervals during the first 6 hours of each medication session. Adverse events were solicited at each post-screening assessment.
Blood pressure and heart rate treatment contrasts were based on MMRM with fixed, categorical effects of treatment and assessment, a treatment-by-assessment interaction, and a fixed covariate (value of each outcome prior to drug administration). All adverse events occurring after informed consent were MedDRA-coded and tabulated, and prevalence within treatment groups (proportion of participants affected) was compared using Fisher's exact tests.

[6] = system: alcohol-dependent participants; conditions: meta-analysis, 95% confidence interval 1.36-2.84; cited from earlier work
[7] = 32-week double-blind follow-up (weeks 5-36)
[8] = 32 weeks following the first administration of study medication
[9] = treatment-emergent, within 48 hours of study drug administration

CN(C)CCc1c[nH]c2cccc(OP(=O)(O)O)c12 [Psilocybin, [3-[2-(dirnethylamino)ethyl]-1H-indo1-4-yl] dihydrogen phosphate]
Total Problems score, between-group Hedges' g [1]: 0.67 | Total Problems score, between-group mean difference [1]: 6.41 | Tolerability [2]: well tolerated | % of Drinking days, between-group Hedges g ([3]; 32-week double-blind follow-up): 0.4 | % of Drinking days, between-group mean difference (diphenhydramine-psilocybin) ([3]; 32-week double-blind follow-up): 13.44% | Drinks per day, between-group Hedges g ([3]; 32-week double-blind follow-up): 0.54 | Drinks per day, between-group mean difference (diphenhydramine-psilocybin) ([3]; 32-week double-blind follow-up): 1.09 Drinks per day | % of Drinking days (PDD), mean [3, 7]: 29.39% | % of Heavy drinking days, between-group mean difference (diphenhydramine-psilocybin) [3, 7]: 13.86% | Drinks per day (DPD), mean [3, 7]: 1.17 Drinks per day | % of Heavy drinking days (PHDD), mean [3]: 9.71% | % of Heavy drinking days (PHDD), mean ([3]; listed as psilocybin): 9.7% | % of Heavy drinking days, between-group mean difference (diphenhydramine-psilocybin) ([3]; 32-week double-blind follow-up (weeks 5-36), listed as psilocybin): 13.86% and 13.9% | % of Heavy drinking days, between-group Hedges g ([3]; 32-week double-blind follow-up, positive = lower mean in psilocybin group): 0.52 | PHDD of psilocybin-treated participants as percent of that in the diphenhydramine-treated group ([3]; 32 weeks of double-blind observation): 41% | Abstinence, % of participants ([3]; Weeks 5-36): 22.9% | Abstinence, No. of participants ([3]; Weeks 5-36): 11 | No heavy drinking, % of participants ([3]; Weeks 5-36): 33.3% | No heavy drinking, No. of participants ([3]; Weeks 5-36): 16 | WHO risk level Decrease 1, % of participants ([3]; Weeks 5-36): 83.3% | WHO risk level Decrease 2, % of participants ([3]; Weeks 5-36): 60.4% | WHO risk level Decrease 2, No. of participants ([3]; Weeks 5-36): 29 | WHO risk level Decrease 3, % of participants ([3]; Weeks 5-36): 29.2% | WHO risk level Decrease 3, No. of participants ([3]; Weeks 5-36): 14 | Abstinence, NNT ([3]; Weeks 5-36): 7.1 | Abstinence, OR ([3]; Weeks 5-36): 3.05 | No heavy drinking, NNT ([3]; Weeks 5-36): 4.5 | No heavy drinking, OR ([3]; Weeks 5-36): 4 | WHO risk level Decrease 1, NNT ([3]; Weeks 5-36): 8.2 | WHO risk level Decrease 1, OR ([3]; Weeks 5-36): 2.03 | WHO risk level Decrease 2, NNT ([3]; Weeks 5-36): 4.9 | WHO risk level Decrease 2, OR ([3]; Weeks 5-36): 2.29 | WHO risk level Decrease 3, NNT ([3]; Weeks 5-36): 6.3 | WHO risk level Decrease 3, OR ([3]; Weeks 5-36): 2.68 | WHO risk level Decrease 1, No. of participants ([3]; Weeks 5-36, relative to 12 weeks prior to screening): 40 | Abstinence, % of participants ([3]; Weeks 33-36): 47.9% | Abstinence, No. of participants ([3]; Weeks 33-36): 23 | No heavy drinking, % of participants ([3]; Weeks 33-36): 62.5% | No heavy drinking, No. of participants ([3]; Weeks 33-36): 30 | WHO risk level Decrease 1, % of participants ([3]; Weeks 33-36): 89.6% | WHO risk level Decrease 1, No. of participants ([3]; Weeks 33-36): 43 | WHO risk level Decrease 2, % of participants ([3]; Weeks 33-36): 60.4% | WHO risk level Decrease 2, No. of participants ([3]; Weeks 33-36): 29 | WHO risk level Decrease 3, % of participants ([3]; Weeks 33-36): 37.5% | WHO risk level Decrease 3, No. of participants ([3]; Weeks 33-36): 18 | Abstinence, NNT ([3]; Weeks 33-36): 4.3 | Abstinence, OR ([3]; Weeks 33-36): 2.84 | No heavy drinking, NNT ([3]; Weeks 33-36): 4.4 | No heavy drinking, OR ([3]; Weeks 33-36): 2.5 | WHO risk level Decrease 1, NNT ([3]; Weeks 33-36): 4 | WHO risk level Decrease 1, OR ([3]; Weeks 33-36): 4.74 | WHO risk level Decrease 2, NNT ([3]; Weeks 33-36): 4.9 | WHO risk level Decrease 2, OR ([3]; Weeks 33-36): 2.29 | WHO risk level Decrease 3, NNT ([3]; Weeks 33-36): 5.1 | WHO risk level Decrease 3, OR ([3]; Weeks 33-36): 2.78 | Mean MEQ score ([4]; Session 1, psilocybin 25 mg/70 kg or diphenhydramine 50 mg): 0.59 (SD=0.24) | Mean MEQ score ([4]; Session 2, psilocybin 25-40 mg/70 kg or diphenhydramine 50-100 mg): 0.64 (SD=0.21) | Adverse events reported, number [5, 8]: 119 | Serious adverse events [5, 8]: no serious adverse events | Time by which blood pressure was no longer significantly elevated ([5]; after drug administration): ≤ 360 min | Time until which heart rate was higher ([5]; after drug administration): approximately 300 minutes | Anxiety and nausea during administration sessions ([5]; compared with diphenhydramine): reported more frequently | Heart rate relative to diphenhydramine group ([5]; during medication sessions): higher | Systolic and diastolic blood pressure relative to diphenhydramine ([5]; during medication sessions): increased | Participants reporting passive suicidal ideation during a medication session ([5]; for 15 minutes, resolved without sequelae): One | Persistent disturbances suggestive of psychosis or hallucinogen persisting perception disorder ([5]; in vivo): no persistent disturbances | Severity of adverse events associated with administration ([5]; in vivo): mostly mild and self-limiting | Participants given diazepam 10 mg by mouth for anxiety ([5]; second medication session): Two | Headaches, participants affected / treated [5, 9]: 21/48 | Headaches, percent of participants [5, 9]: 43.8%

CCN(CC)C(=O)[C@@H]1C=C2c3cccc4[nH]cc(c34)C[C@H]2N(C)C1 [lysergic acid diethylamide (LSD), lysergic acid diethylamide]
Odds ratio of remission during follow-up vs comparator conditions [6]: 1.96
